The target of one test is h KCa3.1 (Homo sapiens (Human), UniProt O15554). The experiment in a line: Electrophysiology patch clamp (PatchXpress). The settings on record: CHO cells over-expressing h KCa3.1, read-out: IC50 Ephys. It is filed as cell-based. Here is the method:
Electrophysiology Patch Clamp
Compounds were tested using a PatchXpress® (Model 7000A, Molecular Devices, Union City Calif.) on CHO cells over-expressing h KCa3.1 at ChanTest Corporation, 14656 Neo Parkway, Cleveland, Ohio.

Another test has as its target KCa3.1 (Homo sapiens (Human), UniProt O15554). In words: Thallium influx assay (FLIPR, FluxOR). The class given is cell-based. The settings on record: CHOK1 cells over-expressing KCa3.1; thallium (3.3 mM)/ionomycin (1 μM) activation. As for the experimental part: The thallium influx assay was performed with CHOK1 cells over-expressing KCa3.1 obtained from Evotec and maintained in MEM Alpha medium supplemented with 10% fetal bovine serum, 100 U/ml penicillin/[…] streptomycin and 250 μg/ml G418.
CHOK1 wild type cells were passaged using F12/Ham's medium supplemented with 10% fetal bovine serum, 2 mM glutamine, 100 U/ml penicillin/[…] streptomycin. All cells were cultured in T175 flasks.
Before the day of the assay, cells were harvested from culture flasks using standard trypsin digestion. Cells were counted and densities adjusted and dispensed into 384-well poly-D-lysine coated plates at 7500 […], assay plates were incubated overnight in CO2 incubator at 37° C.
The following day, growth media was removed followed by the addition of 25 ul/well of FluxOR™ (Invitrogen) loading dye in a gluconate based assay buffer (135 mM NaGluconate,
2.5 mM Kgluconate, 2 mM CaNO3, 1 mM MgNO3, 10 mM HEPES (acid), 5 mM glucose pH adjusted to 7.4). Assay plates were incubated for 1 hour at 37° C. The loading dye was then replaced with gluconate assay buffer containing probenecid.
Compounds diluted in gluconate buffer were transferred into the assay plates (25 μl/well) followed by incubation for 20 minutes at room temperature. The assay plates were then transferred to a Fluorometric Imaging Plate Reader (FLIPR), a baseline was read for twenty second capture, followed by the addition of 25 μl/well of channel activation solution in gluconate buffer—for KCa3.1 cells thallium (3.3 mM)/ionomycin(1 μM) was used and for the wild type, ionomycin only, then fluorescence was monitored for another 90 seconds.

The subject of test [1] is human endometrial cancer cells. As to conditions: nude mice; cited from earlier work.
The next test concerns human melanoma. As to conditions: severe combined immunodeficiency mice; cited from earlier work.
Test [2] deals with allergen challenge-induced airway resistance and hyper-reactivity. As to conditions: sheep model of asthma; cited from earlier work.
The test system of test [3] is trinitrobenzene sulfonic acid-induced colitis. The settings on record: mice; cited from earlier work.
Test [4] has as its system neointimal smooth muscle hyperplasia. The settings on record: rats after carotid balloon angioplasty; cited from earlier work.
For test [5], the system named is T-cell and macrophage infiltration. The settings on record: in combination with a Kv1.3 blocker; early stages of chronic kidney transplant rejection; cited from earlier work.
The subject of another test is MDCK 3-D cyst. The settings on record: MDCK 3-D cyst model of ADPKD; cited from earlier work.
The next test relates to renal fibrosis. As to conditions: unilateral ureteral obstruction model; cited from earlier work.

Usually IC50 stands for the point on the concentration scale where inhibition reaches its midpoint. As for `CCOC(=O)CN1C(=O)O[C@@H](c2cccc(C(F)(F)F)c2)[C@H]1c1ccc(F)cc1` (racemic) [Example 32, [(4RS,5SR)-4-(4-Fluoro-phenyl)-2-oxo-5-(3-trifluoromethyl-phenyl)-oxazolidin-3-yl]-acetic acid ethyl ester], the IC50 at h KCa3.1 was 62 nM; against KCa3.1, 600 nM.

For `Clc1ccccc1C(c1ccccc1)(c1ccccc1)n1ccnc1` [Clotrimazole], the growth of tumours result in test [1] is given as “slowed the growth of tumours”. In the test on human melanoma, the number of metastases entry is reported as “reduce the number of metastases”. On to `NC(=O)CN1C(=O)OC(c2ccc(F)cc2)(c2ccc(F)cc2)[C@@H]1c1ccccc1` [Example 1, (S)-2-(5,5-bis(4-fluorophenyl)-2-oxo-4-phenyloxazolidin-3-yl)acetamide], for which the IC50 at h KCa3.1 stood at 58 nM; against KCa3.1, 860 nM. Regarding `NC(=O)CN1C(=O)OC(c2ccc(F)cc2)(c2ccc(F)cc2)[C@@H]1c1ccc(F)cc1` [Example 7, 2-[(S)-4,5,5-Tris-(4-fluoro-phenyl)-2-oxo-oxazolidin-3-yl]-acetamide], the IC50 on h KCa3.1 is 45 nM; against KCa3.1, 720 nM.

Regarding `NC(=O)CN1C(=O)OC(c2ccc(F)cc2)(c2ccc(F)cc2)[C@@H]1c1ccccc1F` [Example 11, 2-[(S)-5,5-Bis-(4-fluoro-phenyl)-4-(2-fluoro-phenyl)-2-oxo-oxazolidin-3-yl]-acetamide], the IC50 came to 22 nM on h KCa3.1 and 250 nM on KCa3.1. `NC(=O)CN1C(=O)OC(c2ccccc2F)(c2ccccc2F)[C@@H]1c1ccccc1F` [Example 13, 2-[(S)-4,5,5-Tris-(2-fluoro-phenyl)-2-oxo-oxazolidin-3-yl]-acetamide]: the IC50 at h KCa3.1 turned out to be 15 nM; at KCa3.1 it was 340 nM. For `NC(=O)CN1C(=O)OC(c2cccc(F)c2)(c2cccc(F)c2)[C@@H]1c1ccccc1F` [Example 15, 2-[(S)-5,5-Bis-(3-fluoro-phenyl)-4-(2-fluoro-phenyl)-2-oxo-oxazolidin-3-yl]-acetamide], the IC50 at h KCa3.1 stood at 42 nM; at KCa3.1 it was 700 nM.

As for `NC(=O)CN1C(=O)OC(c2ccccc2)(c2ccccc2)[C@@H]1c1ccccc1F` [Example 17, 2-[(S)-4-(2-Fluoro-phenyl)-2-oxo-5,5-diphenyl-oxazolidin-3-yl]-acetamide], the IC50 at h KCa3.1 is 15 nM; on KCa3.1 it was 880 nM. Regarding `NC(=O)CN1C(=O)OC(c2ccc(F)cc2)(c2ccc(F)cc2)[C@@H]1c1ccccc1Cl` [Example 19, 2-[(S)-4-(2-Chloro-phenyl)-5,5-bis-(4-fluoro-phenyl)-2-oxo-oxazolidin-3-yl]-acetamide], the IC50 turned out to be 63 nM on h KCa3.1 and 740 nM against KCa3.1.

In turn, `NC(=O)CN1C(=O)OC(c2cccc(Cl)c2)(c2cccc(Cl)c2)[C@@H]1c1ccccc1` [Example 29, 2-[(S)-5,5-Bis-(3-chloro-phenyl)-2-oxo-4-phenyl-oxazolidin-3-yl]-acetamide] returned an IC50 at KCa3.1 of 6700 nM.

`NC(=O)CN1C(=O)OC(c2ccc(F)cc2)(c2ccc(F)cc2)C1c1ccccn1` (stereo not drawn) [Example 30, 2-(5,5-bis(4-fluorophenyl)-2-oxo-4-(pyridin-2-yl)oxazolidin-3-yl)acetamide] showed an IC50 at KCa3.1 of 17500 nM. `CCOC(=O)CN1C(=O)OC(c2ccc(F)cc2)(c2ccc(F)cc2)[C@@H]1C(C)(C)C` [Example 35, [(S)-4-tert-Butyl-5,5-bis-(4-fluoro-phenyl)-2-oxo-oxazolidin-3-yl]-acetic acid ethyl ester] came in with an IC50 on KCa3.1 of 450 nM. Take `NC(=O)C(c1ccccc1)(c1ccc(F)cc1)c1ccc(F)cc1` [Senicapoc]: the “allergen challenge-induced airway resistance and hyper-reactivity” value in test [2] is “reduce allergen challenge-induced airway resistance and hyper-reactivity”. As for `Clc1ccccc1C(c1ccccc1)(c1ccccc1)n1cccn1` [TRAM-34], the “severity of the symptoms” value in [3] is “significantly reduced the severity of the symptoms”. The “neointimal smooth muscle hyperplasia” value in [4] was “significantly reduced neointimal smooth muscle hyperplasia”. Besides, in test [5], the “T-cell and macrophage infiltration” value is “reduced T-cell and macrophage infiltration”. In the test with MDCK 3-D cyst, the cyst formation entry was “inhibits cyst formation”. Besides, the renal fibrosis result in the test with renal fibrosis was “significantly reduced renal fibrosis”.
